pIC50: −log10 of the molar value.
target: M. tuberculosis RnhC (Mt RnhC; Rv2228c; M. tuberculosis RNase HI) (Mycobacterium tuberculosis, UniProt P9WLH5); assay: biochemical
Sequence (P9WLH5 whole entry): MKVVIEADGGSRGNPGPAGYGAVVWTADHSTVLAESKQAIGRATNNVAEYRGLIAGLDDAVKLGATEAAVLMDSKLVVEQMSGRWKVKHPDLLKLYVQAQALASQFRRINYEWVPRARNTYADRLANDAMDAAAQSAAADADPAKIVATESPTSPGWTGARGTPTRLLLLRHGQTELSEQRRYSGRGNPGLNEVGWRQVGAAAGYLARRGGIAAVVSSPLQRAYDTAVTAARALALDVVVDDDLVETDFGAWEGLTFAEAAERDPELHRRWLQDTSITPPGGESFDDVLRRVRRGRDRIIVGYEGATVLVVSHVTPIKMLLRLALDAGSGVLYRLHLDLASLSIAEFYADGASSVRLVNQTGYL

Compared with O=S(=O)(N/N=C/c1c(O)ccc2ccccc12)c1cc(Cl)c(Cl)cc1Cl [NSC99726], Oc1ccc(-c2csc(Nc3ccccn3)n2)cc1O [NSC353720] is 0.57 log units higher in pIC50: 4.35 for the first, 4.92 for the second. The second is the more potent here.

Compared with CC(C)c1ccc(O)c(=O)c(O)c1 [NSC18806], COc1ccc(C2COc3cc(O)c(O)cc3C2)cc1 (stereo not shown) [NSC600285] is 0.28 log units higher in pIC50: 4.49 for the first, 4.77 for the second.

Reference: article doi:10.1101/2021.07.14.452003v1 (biorxiv, 2021)
